Test results as given in ChEMBL document CHEMBL1909046, “DrugMatrix in vitro pharmacology data”.

Key:
[1] = target: T1, Amine oxidase [flavin-containing] A (Homo sapiens, UniProt P21397); experiment: DRUGMATRIX: Monoamine Oxidase MAO-A enzyme inhibition (substrate: Kynuramine); design: species or system BTI-TN-5B1-4; settings: bti-tn-5b1-4; Not Active = under 50% inhibition at 10 µM
T1 sequence (P21397 whole entry): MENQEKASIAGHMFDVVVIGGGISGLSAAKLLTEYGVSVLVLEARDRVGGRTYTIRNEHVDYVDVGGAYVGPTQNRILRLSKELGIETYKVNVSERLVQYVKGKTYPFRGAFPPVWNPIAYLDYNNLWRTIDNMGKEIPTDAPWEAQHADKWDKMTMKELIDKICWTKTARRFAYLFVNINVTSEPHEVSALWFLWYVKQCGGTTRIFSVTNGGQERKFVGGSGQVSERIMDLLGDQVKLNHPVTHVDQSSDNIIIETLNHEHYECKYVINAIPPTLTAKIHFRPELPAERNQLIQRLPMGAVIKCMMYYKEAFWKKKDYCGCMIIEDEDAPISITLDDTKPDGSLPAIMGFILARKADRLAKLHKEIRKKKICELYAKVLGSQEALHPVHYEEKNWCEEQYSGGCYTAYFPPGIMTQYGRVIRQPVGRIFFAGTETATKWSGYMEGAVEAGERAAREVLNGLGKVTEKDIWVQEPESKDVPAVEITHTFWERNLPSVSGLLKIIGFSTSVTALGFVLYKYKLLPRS

[2] = target: Mitogen-activated protein kinase 14 (Homo sapiens, UniProt Q16539); design: species or system Escherichia coli;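 note: inhibition of p38alpha enzyme activity in a biochemical kinase assay, with myelin basic protein serving as substrate; in other assays of this panel Not Active means under 50% inhibition at 10 µM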
[3] = target: C-C chemokine receptor type 5 (Homo sapiens, UniProt P51681); type: cell membranes, HEK293, Membrane; note: in other assays of this panel Not Active means under 50% inhibition at 10 µM
[4] = target: Sodium-dependent noradrenaline transporter (Homo sapiens, UniProt P23975); experiment: DRUGMATRIX: Norepinephrine Transporter radioligand binding (ligand: [125I] RTI-55); type: cell membranes, MDCK, Membrane; settings: Not Active = under 50% inhibition at 10 µM; for Ki: read-out: Ki
[5] = target: T2, Angiotensin-converting enzyme (Oryctolagus cuniculus, UniProt P12822); type: tissue-based, Lung;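 note: enzymatic inhibition of angiotensin-converting enzyme measured with FAPGG as the substrate; in other assays of this panel Not Active means under 50% inhibition at 10 µM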
T2 sequence (P12822 whole entry): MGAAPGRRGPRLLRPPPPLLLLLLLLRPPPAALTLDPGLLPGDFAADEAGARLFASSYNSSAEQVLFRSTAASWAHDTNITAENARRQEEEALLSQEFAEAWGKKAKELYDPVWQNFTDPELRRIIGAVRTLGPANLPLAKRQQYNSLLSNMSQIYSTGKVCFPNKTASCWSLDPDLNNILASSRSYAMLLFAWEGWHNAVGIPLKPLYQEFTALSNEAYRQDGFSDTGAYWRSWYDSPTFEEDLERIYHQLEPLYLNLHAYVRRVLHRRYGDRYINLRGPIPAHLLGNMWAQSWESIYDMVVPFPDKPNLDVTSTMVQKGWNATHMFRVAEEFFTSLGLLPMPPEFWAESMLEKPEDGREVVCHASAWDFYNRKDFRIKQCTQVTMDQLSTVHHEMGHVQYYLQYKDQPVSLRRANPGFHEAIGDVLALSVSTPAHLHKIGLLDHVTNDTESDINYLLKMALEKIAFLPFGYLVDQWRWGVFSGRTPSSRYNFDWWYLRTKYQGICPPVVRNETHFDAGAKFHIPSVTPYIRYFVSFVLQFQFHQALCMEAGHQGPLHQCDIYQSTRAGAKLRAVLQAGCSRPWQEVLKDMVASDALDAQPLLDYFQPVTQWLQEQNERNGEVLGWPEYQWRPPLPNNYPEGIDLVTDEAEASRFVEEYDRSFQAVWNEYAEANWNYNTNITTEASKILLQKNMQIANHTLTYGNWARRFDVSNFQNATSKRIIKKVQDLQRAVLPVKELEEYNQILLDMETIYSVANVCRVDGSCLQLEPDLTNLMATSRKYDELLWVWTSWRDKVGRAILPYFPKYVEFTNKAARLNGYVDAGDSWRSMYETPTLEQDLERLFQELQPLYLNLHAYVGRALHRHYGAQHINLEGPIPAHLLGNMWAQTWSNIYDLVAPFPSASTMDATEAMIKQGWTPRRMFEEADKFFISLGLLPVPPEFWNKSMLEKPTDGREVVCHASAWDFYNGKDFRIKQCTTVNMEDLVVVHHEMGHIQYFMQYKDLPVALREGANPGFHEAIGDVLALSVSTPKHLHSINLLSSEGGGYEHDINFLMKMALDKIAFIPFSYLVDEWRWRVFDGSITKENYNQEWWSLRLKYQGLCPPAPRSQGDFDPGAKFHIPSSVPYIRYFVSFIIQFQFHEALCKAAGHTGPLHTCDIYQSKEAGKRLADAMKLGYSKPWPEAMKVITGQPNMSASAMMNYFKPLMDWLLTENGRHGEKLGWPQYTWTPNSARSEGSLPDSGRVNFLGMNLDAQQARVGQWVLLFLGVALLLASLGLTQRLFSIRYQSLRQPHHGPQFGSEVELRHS

[6] = target: Vascular endothelial growth factor receptor 1 (Homo sapiens, UniProt P17948); type: cell-based; settings: huvec; note: in other assays of this panel Not Active means under 50% inhibition at 10 µM
[7] = DRUGMATRIX: Tumor Necrosis Factor (TNF), Non-Selective radioligand binding (ligand: [125I] TNF-alpha); type: cell membranes, Membrane; settings: u-937; Not Active = under 50% inhibition at 10 µM
[8] = target: T3, Alpha-1B adrenergic receptor (Rattus norvegicus, UniProt P15823); experiment: DRUGMATRIX: Alpha-1B adrenergic receptor radioligand binding (ligand: prazosin); type: cell membranes, Wistar, Liver, Membrane; settings: Not Active = under 50% inhibition at 10 µM; for Ki: read-out: Ki
T3 sequence (P15823 whole entry): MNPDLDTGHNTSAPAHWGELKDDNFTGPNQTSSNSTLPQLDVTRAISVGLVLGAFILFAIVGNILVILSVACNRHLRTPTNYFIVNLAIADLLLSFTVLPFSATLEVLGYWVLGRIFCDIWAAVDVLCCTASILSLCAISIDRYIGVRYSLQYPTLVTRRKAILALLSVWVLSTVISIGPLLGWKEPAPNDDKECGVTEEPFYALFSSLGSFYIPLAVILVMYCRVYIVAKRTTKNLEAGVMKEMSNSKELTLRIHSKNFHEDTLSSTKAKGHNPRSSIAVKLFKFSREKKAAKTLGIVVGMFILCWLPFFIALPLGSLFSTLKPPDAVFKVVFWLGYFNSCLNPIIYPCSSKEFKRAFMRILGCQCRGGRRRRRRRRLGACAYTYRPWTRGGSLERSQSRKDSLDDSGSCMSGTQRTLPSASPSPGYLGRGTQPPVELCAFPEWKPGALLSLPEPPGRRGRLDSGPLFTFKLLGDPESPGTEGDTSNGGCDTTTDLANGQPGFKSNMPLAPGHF

[9] = DRUGMATRIX: beta-Lactamase enzyme inhibition (substrate: Nitrocefin); design: species or system Bacillus cereus; settings: Not Active = under 50% inhibition at 10 µM

Sodium-dependent noradrenaline transporter, sequence (P23975 whole entry): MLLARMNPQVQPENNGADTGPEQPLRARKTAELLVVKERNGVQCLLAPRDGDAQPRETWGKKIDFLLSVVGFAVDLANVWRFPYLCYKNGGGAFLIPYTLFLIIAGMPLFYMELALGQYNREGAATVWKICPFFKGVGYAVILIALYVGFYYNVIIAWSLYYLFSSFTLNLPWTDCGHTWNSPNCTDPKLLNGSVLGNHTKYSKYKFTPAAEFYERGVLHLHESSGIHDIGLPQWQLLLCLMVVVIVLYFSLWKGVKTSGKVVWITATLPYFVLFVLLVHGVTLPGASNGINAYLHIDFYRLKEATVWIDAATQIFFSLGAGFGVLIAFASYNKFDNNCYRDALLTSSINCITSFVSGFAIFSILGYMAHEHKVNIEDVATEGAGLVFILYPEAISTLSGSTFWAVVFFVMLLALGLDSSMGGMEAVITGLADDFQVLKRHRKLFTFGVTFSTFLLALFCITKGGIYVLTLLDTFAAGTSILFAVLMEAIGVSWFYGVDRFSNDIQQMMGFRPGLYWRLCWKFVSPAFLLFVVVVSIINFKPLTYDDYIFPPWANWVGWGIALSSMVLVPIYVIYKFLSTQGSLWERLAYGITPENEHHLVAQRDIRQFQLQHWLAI
C-C chemokine receptor type 5, sequence (P51681 whole entry): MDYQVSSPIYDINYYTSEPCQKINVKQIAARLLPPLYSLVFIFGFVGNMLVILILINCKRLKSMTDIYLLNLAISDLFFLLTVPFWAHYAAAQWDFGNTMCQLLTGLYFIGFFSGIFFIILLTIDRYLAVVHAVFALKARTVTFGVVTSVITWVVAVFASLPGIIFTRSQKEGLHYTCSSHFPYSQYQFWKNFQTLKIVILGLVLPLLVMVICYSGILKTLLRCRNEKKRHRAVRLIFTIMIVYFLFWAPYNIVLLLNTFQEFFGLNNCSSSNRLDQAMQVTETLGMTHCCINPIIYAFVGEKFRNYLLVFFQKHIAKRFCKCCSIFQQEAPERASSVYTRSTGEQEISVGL
Mitogen-activated protein kinase 14, sequence (Q16539 whole entry): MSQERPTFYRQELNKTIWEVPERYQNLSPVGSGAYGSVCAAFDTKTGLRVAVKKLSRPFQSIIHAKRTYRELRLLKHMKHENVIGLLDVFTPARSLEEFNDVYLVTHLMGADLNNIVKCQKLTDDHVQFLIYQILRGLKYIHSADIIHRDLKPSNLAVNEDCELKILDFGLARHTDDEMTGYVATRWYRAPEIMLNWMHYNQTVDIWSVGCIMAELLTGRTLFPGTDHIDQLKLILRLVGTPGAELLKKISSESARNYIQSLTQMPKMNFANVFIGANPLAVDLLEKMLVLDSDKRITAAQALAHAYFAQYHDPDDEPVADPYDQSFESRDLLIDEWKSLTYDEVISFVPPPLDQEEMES
Vascular endothelial growth factor receptor 1, sequence (P17948 whole entry): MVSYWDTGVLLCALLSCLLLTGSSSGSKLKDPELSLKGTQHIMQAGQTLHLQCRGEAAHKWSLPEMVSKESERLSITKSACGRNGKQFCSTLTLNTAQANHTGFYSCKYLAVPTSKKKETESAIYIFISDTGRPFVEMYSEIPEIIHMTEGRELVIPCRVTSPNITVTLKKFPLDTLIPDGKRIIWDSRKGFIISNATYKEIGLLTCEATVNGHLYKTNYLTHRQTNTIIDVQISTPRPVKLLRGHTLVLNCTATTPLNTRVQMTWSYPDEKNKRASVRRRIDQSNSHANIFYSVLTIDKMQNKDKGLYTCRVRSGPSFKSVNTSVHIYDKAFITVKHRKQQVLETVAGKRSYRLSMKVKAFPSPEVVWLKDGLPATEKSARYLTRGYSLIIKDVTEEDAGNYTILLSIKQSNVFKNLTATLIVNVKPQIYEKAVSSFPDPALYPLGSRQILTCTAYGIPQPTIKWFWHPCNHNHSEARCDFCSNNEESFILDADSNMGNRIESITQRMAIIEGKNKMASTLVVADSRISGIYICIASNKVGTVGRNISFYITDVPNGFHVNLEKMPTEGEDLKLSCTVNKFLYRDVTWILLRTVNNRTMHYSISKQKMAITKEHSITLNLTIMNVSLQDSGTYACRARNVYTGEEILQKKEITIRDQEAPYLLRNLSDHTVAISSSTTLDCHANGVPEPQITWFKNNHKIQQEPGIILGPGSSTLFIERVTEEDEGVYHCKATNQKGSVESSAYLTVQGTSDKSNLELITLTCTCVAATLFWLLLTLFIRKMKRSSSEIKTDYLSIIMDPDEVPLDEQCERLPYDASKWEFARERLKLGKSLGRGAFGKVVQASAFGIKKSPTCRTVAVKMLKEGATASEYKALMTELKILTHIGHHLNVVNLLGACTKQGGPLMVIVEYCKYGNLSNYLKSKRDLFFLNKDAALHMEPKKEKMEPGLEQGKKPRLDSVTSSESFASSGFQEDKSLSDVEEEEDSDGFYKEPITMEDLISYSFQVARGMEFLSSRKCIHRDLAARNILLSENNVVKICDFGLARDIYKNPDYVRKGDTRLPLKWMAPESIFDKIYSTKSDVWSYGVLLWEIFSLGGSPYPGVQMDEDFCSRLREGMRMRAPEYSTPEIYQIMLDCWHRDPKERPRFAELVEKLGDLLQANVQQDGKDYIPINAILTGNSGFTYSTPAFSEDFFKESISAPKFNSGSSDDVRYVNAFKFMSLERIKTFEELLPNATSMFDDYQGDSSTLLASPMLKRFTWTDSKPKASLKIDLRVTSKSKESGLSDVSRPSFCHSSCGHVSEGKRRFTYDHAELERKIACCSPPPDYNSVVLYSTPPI

Structure (SMILES) | IC50 [1] | IC50 [2] | IC50 ([3]; hek293) | IC50 ([4]; mdck) | IC50 [5] | IC50 [6] | IC50 [7] | Ki [7] | IC50 [8] | IC50 [9] | Ki [9] | IC50 ([4]; read-out: IC50) [µM] | Ki [4] [µM] | IC50 ([8]; read-out: IC50) [µM] | Ki [8] [µM] | IC50 ([2]; read-out: IC50) [µM] | IC50 ([9]; read-out: IC50) [µM] | IC50 ([3]; read-out: IC50) [µM] | Ki ([3]; read-out: Ki) [µM]
Cc1cc(C)nc(NS(=O)(=O)c2ccc(N)cc2)n1 [SULFAMETHAZINE] | Not Active | Not Active | Not Active | Not Active | Not Active | Not Active | Not Active | Not Active | Not Active | Not Active | Not Active | – | – | – | – | – | – | – | –
CN1CCC(=C2c3ccccc3C=Cc3ccccc32)CC1 [CYPROHEPTADINE] | Not Active | Not Active | Not Active | – | Not Active | Not Active | – | – | – | – | – | – | – | – | – | – | – | – | –
CNC(=C[N+](=O)[O-])NCCSCc1ccc(CN(C)C)o1 [RANITIDINE] | Not Active | Not Active | Not Active | Not Active | Not Active | Not Active | Not Active | Not Active | Not Active | Not Active | Not Active | – | – | – | – | – | – | – | –
CC(=O)N1CCN(c2ccc(OCC3COC(Cn4ccnc4)(c4ccc(Cl)cc4Cl)O3)cc2)CC1 (configuration not stated) [KETOCONAZOLE] | Not Active | Not Active | Not Active | – | Not Active | Not Active | Not Active | Not Active | – | Not Active | Not Active | 24.2 | 24 | 22.9 | 12.7 | – | – | – | –
CC(C)CC(N(C)C)C1(c2ccc(Cl)cc2)CCC1 (configuration not stated) [SIBUTRAMINE] | Not Active | Not Active | Not Active | – | Not Active | Not Active | Not Active | Not Active | Not Active | Not Active | Not Active | – | – | – | – | – | – | – | –
Cc1onc(-c2ccccc2)c1-c1ccc(S(N)(=O)=O)cc1 [VALDECOXIB] | Not Active | Not Active | Not Active | – | Not Active | Not Active | Not Active | Not Active | Not Active | Not Active | Not Active | 2.93 | 2.9 | – | – | – | – | – | –
CC/C(=C(/CC)c1ccc(O)cc1)c1ccc(O)cc1 [DIETHYLSTILBESTROL] | Not Active | – | Not Active | – | Not Active | Not Active | – | – | – | – | – | – | – | – | – | 32.9 | – | – | –
C[C@]1(Cn2ccnn2)[C@H](C(=O)O)N2C(=O)C[C@H]2S1(=O)=O [TAZOBACTAM] | Not Active | Not Active | Not Active | Not Active | Not Active | Not Active | Not Active | Not Active | Not Active | – | – | – | – | – | – | – | 0.299 | – | –
COCCOC(=O)C1=C(C)NC(C)=C(C(=O)OC(C)C)C1c1cccc([N+](=O)[O-])c1 (configuration not stated) [NIMODIPINE] | Not Active | Not Active | Not Active | Not Active | Not Active | Not Active | Not Active | Not Active | Not Active | Not Active | Not Active | – | – | – | – | – | – | – | –
Cc1cccc(Nc2ccncc2S(=O)(=O)NC(=O)NC(C)C)c1 [TORSEMIDE] | Not Active | Not Active | Not Active | Not Active | Not Active | Not Active | Not Active | Not Active | Not Active | Not Active | Not Active | – | – | – | – | – | – | – | –
[Cl-].[Cl-].[Zn+2] [ZINC CHLORIDE] | Not Active | Not Active | Not Active | – | Not Active | Not Active | Not Active | Not Active | Not Active | Not Active | Not Active | 7.01 | 6.95 | – | – | – | – | – | –
C=CCN1CC[C@]23c4c5ccc(O)c4O[C@H]2C(=O)CC[C@@]3(O)[C@H]1C5 [NALOXONE] | Not Active | Not Active | Not Active | Not Active | Not Active | Not Active | – | – | – | – | – | – | – | – | – | – | – | – | –
CN1C(C(=O)Nc2ccccn2)=C(O)c2sccc2S1(=O)=O [TENOXICAM] | Not Active | Not Active | Not Active | Not Active | Not Active | Not Active | Not Active | Not Active | Not Active | Not Active | Not Active | – | – | – | – | – | – | – | –
CC(C)NCC(O)COc1cccc2ccccc12 (configuration not stated) [PROPRANOLOL] | Not Active | Not Active | Not Active | – | Not Active | Not Active | – | – | – | – | – | – | – | – | – | – | – | – | –
Clc1ccc2c(c1)C(N1CCNCC1)=Nc1ccccc1O2 [AMOXAPINE] | Not Active | Not Active | Not Active | – | Not Active | Not Active | – | – | – | – | – | – | – | – | – | – | – | – | –
CC(C)(C)c1ccc(C(O)CCCN2CCC(C(O)(c3ccccc3)c3ccccc3)CC2)cc1 (configuration not stated) [TERFENADINE] | Not Active | Not Active | – | – | Not Active | Not Active | Not Active | Not Active | – | Not Active | Not Active | – | – | 3.34 | 1.85 | – | – | 1.1 | 0.852
O=C(c1ccc(OCCN2CCCCC2)cc1)c1c(-c2ccc(O)cc2)sc2cc(O)ccc12 [RALOXIFENE] | Not Active | Not Active | Not Active | – | Not Active | Not Active | Not Active | Not Active | – | Not Active | Not Active | – | – | 2.69 | 1.49 | – | – | – | –
COc1cc2c(c(OC)c1OC)-c1ccc(OC)c(=O)cc1[C@@H](NC(C)=O)CC2 [COLCHICINE] | Not Active | Not Active | Not Active | Not Active | Not Active | Not Active | – | – | – | – | – | – | – | – | – | – | – | – | –
